Laboratory results as given in ChEMBL document CHEMBL5380875, “Discovery of a Potent and Oral Available Complex I OXPHOS Inhibitor That Abrogates Tumor Growth and Circumvents MEKi Resistance” (J Med Chem, 2023).
Activity calls are given as the source filed them. The calls are words filed in the database; no cut-off is given here.

Experiments:
[1] = test system: NCI-H460; experiment: Antiproliferative activity against human NCI-H460 cells with high-OXPHOS assessed as reduction in cell viability incubated for 5 days by CellTiter 96 cell proliferation assay; type: functional, cell-based; settings: NCI-H460, 120 h
[2] = test system: NCI-H460; experiment: Inhibition of colony formation in human NCI-H460 cells with high-OXPHOS incubated for 7 days by crystal violet staining based analysis; type: functional, cell-based; settings: dose 250-1000 nM, time 7.0 day
[3] = test system: NCI-H358; experiment: Inhibition of colony formation in human NCI-H358 cells low-OXPHOS at 250 to 1000 nM incubated for 7 days by crystal violet staining based analysis; type: functional, cell-based; settings: dose 250-1000 nM, time 7.0 day
[4] = test system: NCI-H460; experiment: Inhibition of mitochondrial complex I NADH-ubiquinone oxidoreductase in human NCI-H460 cells assessed as reduction in oxygen consumption rate at 1 uM incubated for 12 hrs in presence of medium supplemented with succinate by seahorse XF96 metabolic flux analyzer; type: cell-based
[5] = test system: NCI-H460; experiment: Inhibition of mitochondrial complex I NADH-ubiquinone oxidoreductase in human NCI-H460 cells assessed as reduction in NAD+/NADH ratio at 1 uM incubated for 12 hrs by WST-8 method; type: cell-based
[6] = test system: NCI-H460; experiment: Inhibition of mitochondrial complex I NADH-ubiquinone oxidoreductase in human NCI-H460 cells assessed as reduction in oxygen consumption rate at 1 uM incubated for 12 hrs in presence of medium supplemented with malate by seahorse XF96 metabolic flux analyzer; type: cell-based
[7] = test system: NCI-H460; experiment: Inhibition of mitochondrial complex IV in human NCI-H460 cells at 1 uM incubated for 12 hrs by seahorse XF96 metabolic flux analyzer relative to control; type: cell-based
[8] = test system: NCI-H460; experiment: Inhibition of mitochondrial complex II in human NCI-H460 cells at 1 uM incubated for 12 hrs by seahorse XF96 metabolic flux analyzer relative to control; type: cell-based
[9] = test system: NCI-H441; experiment: Antiproliferative activity against human NCI-H441 cells with high-OXPHOS assessed as reduction in cell viability incubated for 5 days by CellTiter 96 cell proliferation assay; type: functional, cell-based; settings: NCI-H441, 120 h
[10] = test system: NCI-H460; experiment: Inhibition of mitochondrial complex I NADH-ubiquinone oxidoreductase in human NCI-H460 cells at 1 uM incubated for 12 hrs by seahorse XF96 metabolic flux analyzer relative to control; type: cell-based
[11] = test system: NCI-H460; experiment: Inhibition of mitochondrial complex III in human NCI-H460 cells at 1 uM incubated for 12 hrs by seahorse XF96 metabolic flux analyzer relative to control; type: cell-based
[12] = test system: NCI-H460; experiment: Inhibition of mitochondrial complex I NADH-ubiquinone oxidoreductase in human NCI-H460 cells assessed as reduction in oxygen consumption rate at 1 uM incubated for 12 hrs in presence of medium supplemented with pyruvate by seahorse XF96 metabolic flux analyzer; type: cell-based
[13] = test system: NCI-H441; experiment: Inhibition of colony formation in human NCI-H441 cells with high-OXPHOS incubated for 7 days by crystal violet staining based analysis; type: functional, cell-based; settings: dose 250-1000 nM, time 7.0 day
[14] = test system: NCI-H460; experiment: Inhibition of mitochondrial complex I NADH-ubiquinone oxidoreductase in human NCI-H460 cells assessed as reduction in NAD+/NADH ratio at 1 uM incubated for 12 hrs by WST-8 method relative to control; type: cell-based
[15] = test system: NCI-H358; experiment: Antiproliferative activity against human NCI-H358 cells with low-OXPHOS assessed as reduction in cell viability incubated for 5 days by CellTiter 96 cell proliferation assay; type: functional, cell-based; settings: NCI-H358, 120 h
[16] = test system: A549; experiment: Cytotoxicity against human Trametinib-resistant A549 cells assessed as reduction in cell viability incubated for 72 hrs by CellTiter 96 cell proliferation assay; type: functional, cell-based; settings: A549, 72 h
[17] = test system: A549; experiment: Induction of apoptosis in human Trametinib-resistant A549 cells with high-OXPHOS harboring KRAS G12S mutant assessed as early apoptotic cells at 500 nM incubated for 72 hrs by Annexin V-FITC/propidium iodide staining based flow cytometry analysis (reference value: 4.31%); type: functional
[18] = test system: A549; experiment: Cytotoxicity against human A549 cells assessed as reduction in cell viability incubated for 72 hrs by CellTiter 96 cell proliferation assay; type: functional, cell-based; settings: A549, 72 h
[19] = test system: A549; experiment: Induction of apoptosis in human Trametinib-resistant A549 cells with high-OXPHOS harboring KRAS G12S mutant assessed as late apoptotic cells at 500 nM incubated for 72 hrs by Annexin V-FITC/propidium iodide staining based flow cytometry analysis (reference value: 4.27%); type: functional
[20] = test system: NCI-H460; experiment: Induction of apoptosis in human NCI-H460 cells with high-OXPHOS harboring KRAS Q61H mutant assessed as early apoptotic cells at 500 nM incubated for 72 hrs by Annexin V-FITC/propidium iodide staining based flow cytometry analysis (reference value: 1.95%); type: functional
[21] = test system: NCI-H460; experiment: Induction of apoptosis in human NCI-H460 cells with high-OXPHOS harboring KRAS Q61H mutant assessed as late apoptotic cells at 500 nM incubated for 72 hrs by Annexin V-FITC/propidium iodide staining based flow cytometry analysis (reference value: 5.68%); type: functional

## Cc1c(C(=O)N2CCN(Cc3ccc(OCC(F)(F)F)cc3)CC2)nnn1Cc1ccc(C(=O)Nc2cccc(C(F)(F)F)c2)nc1
[1]
  IC50: 257 nM
[2]
  inhibition: Dose-Dependent Effect
[3]
  inhibition: inactive
[4]
  inhibition: inactive
[5]
  inhibition: Active
[6]
  inhibition: Active
[7]
  inhibition: -0.1%
[8]
  inhibition: 1.2%
[9]
  IC50: 169 nM
[10]
  inhibition: 41.2%
[11]
  inhibition: 14%
[12]
  inhibition: Active
[13]
  inhibition: Dose-Dependent Effect
[14]
  inhibition: 39.1%
[15]
  IC50: > 10000 nM

## Cc1c(C(=O)N2CCN(Cc3ccc(OCC(F)(F)F)cc3)CC2)nnn1Cc1ccc(C(=O)Nc2ccc(C(C)(C)C)cc2)nc1
[10]
  inhibition: 45%

## Cc1c(C(=O)N2CCN(Cc3ccc(OCC(F)(F)F)cc3)CC2)nnn1Cc1ccc(C(=O)NC2CCOCC2)nc1
[10]
  inhibition: 10.5%

## Cc1c(C(=O)N2CCN(Cc3ccc(OCC(F)(F)F)cc3)CC2)nnn1Cc1ccc(C(=O)Nc2ccc(F)cc2)nc1
[1]
  IC50: 11.7 nM
[7]
  inhibition: 26.6%
[8]
  inhibition: 9.4%
[10]
  inhibition: 54.2%
[11]
  inhibition: 2.6%
[14]
  inhibition: 72.5%
[15]
  IC50: > 1000 nM

## Cc1c(C(=O)N2CCN(Cc3ccc(OCC(F)(F)F)cc3)CC2)nnn1Cc1ccc(C(=O)Nc2ccc(Cl)cc2)nc1
[1]
  IC50: 7.6 nM
[7]
  inhibition: 26%
[8]
  inhibition: 13.5%
[10]
  inhibition: 60.1%
[11]
  inhibition: 30.3%
[14]
  inhibition: 72.5%
[15]
  IC50: > 1000 nM

## Cc1c(C(=O)N2CCN(Cc3ccc(C(C)(C)C)cc3)CC2)nnn1Cc1ccc(C(=O)Nc2ccc(C(F)(F)F)cc2)nc1
[1]
  IC50: 7.8 nM
[7]
  inhibition: 12.2%
[8]
  inhibition: -0.9%
[10]
  inhibition: 50.5%
[11]
  inhibition: 17.8%
[14]
  inhibition: 73.2%
[15]
  IC50: > 1000 nM

## CCN1CCN(C(=O)c2nnn(Cc3ccc(C(=O)Nc4ccc(C(F)(F)F)cc4)nc3)c2C)CC1
[10]
  inhibition: -4.1%

## Cc1c(C(=O)N2CCN(Cc3ccccc3)CC2)nnn1Cc1ccc(C(=O)Nc2ccc(C(F)(F)F)cc2)nc1
[10]
  inhibition: 10.4%

## Cc1ccc(CN2CCN(C(=O)c3nnn(Cc4ccc(C(=O)Nc5ccc(C(F)(F)F)cc5)nc4)c3C)CC2)cc1
[10]
  inhibition: 38.1%

## Cc1c(C(=O)N2CCN(Cc3ccc(OCC(F)(F)F)cc3)CC2)nnn1Cc1ccc(C(=O)NCC(C)C)nc1
[10]
  inhibition: 5.6%

## Cc1nnn(Cc2ccc(C(=O)Nc3ccc(F)cc3)nc2)c1C(=O)N1CCN(Cc2ccc(OCC(F)(F)F)cc2)CC1
[10]
  inhibition: 9%

## Cc1c(C(=O)N2CCN(Cc3ccc(C(C)C)cc3)CC2)nnn1Cc1ccc(C(=O)Nc2ccc(C(F)(F)F)cc2)nc1
[10]
  inhibition: 36.7%

## Cc1nnn(Cc2ccc(C(=O)Nc3ccc(OC(F)(F)F)cc3)nc2)c1C(=O)N1CCN(Cc2ccc(OCC(F)(F)F)cc2)CC1
[10]
  inhibition: 20.4%

## Cc1c(C(=O)N2CCN(C(=O)c3ccc(OC(F)(F)F)cc3)CC2)nnn1Cc1ccc(C(=O)Nc2ccc(C(F)(F)F)cc2)nc1
[10]
  inhibition: 43.8%

## Cc1c(C(=O)N2CCN(Cc3ccc(OC(F)(F)F)cc3)CC2)nnn1Cc1ccc(C(=O)Nc2ccc(C(F)(F)F)cc2)nc1
[10]
  inhibition: 50.5%

## O=C(Nc1ccc(C(F)(F)F)cc1)c1ccc(Cn2cc(C(=O)N3CCN(Cc4ccc(OCC(F)(F)F)cc4)CC3)nn2)cn1
[1]
  IC50: 10.6 nM
[7]
  inhibition: -2%
[8]
  inhibition: 7.4%
[10]
  inhibition: 52%
[11]
  inhibition: 26%
[14]
  inhibition: 65.7%
[15]
  IC50: 588 nM

## CC(=O)Nc1cccc(-n2c(=O)n(C3CC3)c(=O)c3c(Nc4ccc(I)cc4F)n(C)c(=O)c(C)c32)c1 [TRAMETINIB]
[16]
  IC50: 38100 nM
[17]
  Activity: 6.94%
[18]
  IC50: 296 nM
[19]
  Activity: 15.6%
[20]
  Activity: 2.51%
[21]
  Activity: 8.3%

## Cc1c(C(=O)N2CCN(Cc3ccccc3OCC(F)(F)F)CC2)nnn1Cc1ccc(C(=O)Nc2ccc(C(F)(F)F)cc2)nc1
[10]
  inhibition: 6.7%

## Cc1c(C(=O)N2CCN(C)CC2)nnn1Cc1ccc(C(=O)Nc2ccc(C(F)(F)F)cc2)nc1
[8]
  inhibition: -1.2%
[10]
  inhibition: 11.5%

## CCNC(=O)c1ccc(Cn2nnc(C(=O)N3CCN(Cc4ccc(OCC(F)(F)F)cc4)CC3)c2C)cn1
[10]
  inhibition: 36.3%

## O=C(Nc1ccc(C(F)(F)F)cc1)c1ccc(Cn2nnc(C(=O)N3CCN(Cc4ccc(OCC(F)(F)F)cc4)CC3)c2-c2ccccc2)cn1
[10]
  inhibition: 12.6%

## Cc1nnn(Cc2ccc(C(=O)Nc3ccc(Br)cc3)nc2)c1C(=O)N1CCN(Cc2ccc(OCC(F)(F)F)cc2)CC1
[10]
  inhibition: 7.7%

## Cc1c(C(=O)N2CCN(Cc3ccc(OCC(F)(F)F)cc3)CC2)nnn1Cc1ccc(C(=O)Nc2ccc(Br)cc2)nc1
[1]
  IC50: 5.5 nM
[7]
  inhibition: 20%
[8]
  inhibition: 22.5%
[10]
  inhibition: 66%
[11]
  inhibition: 33.7%
[14]
  inhibition: 62.6%
[15]
  IC50: 450 nM

## Cc1c(C(=O)N2CCN(S(C)(=O)=O)CC2)nnn1Cc1ccc(C(=O)Nc2ccc(C(F)(F)F)cc2)nc1
[10]
  inhibition: 20.4%

## Cc1ccc(NC(=O)c2ccc(Cn3nnc(C(=O)N4CCN(Cc5ccc(OCC(F)(F)F)cc5)CC4)c3C)cn2)cc1
[10]
  inhibition: 47.9%

## O=C(Nc1ccc(C(F)(F)F)cc1)c1ccc(Cn2nnc(C(=O)N3CCN(Cc4ccc(OCC(F)(F)F)cc4)CC3)c2C(F)(F)F)cn1
[1]
  IC50: 3.8 nM
[7]
  inhibition: 1.6%
[8]
  inhibition: 4.7%
[10]
  inhibition: 59.3%
[11]
  inhibition: 12.1%
[14]
  inhibition: 85.1%
[15]
  IC50: 605 nM

## Cc1c(C(=O)N2CCN(Cc3ccc(OCC(F)(F)F)cc3)CC2)nnn1Cc1ccc(C(=O)Nc2ccc(OC(F)(F)F)cc2)nc1
[1]
  IC50: 6.3 nM
[7]
  inhibition: -6.7%
[8]
  inhibition: 8.8%
[10]
  inhibition: 58.4%
[11]
  inhibition: 9%
[14]
  inhibition: 74.2%
[15]
  IC50: 856 nM

## Cc1nnn(Cc2ccc(C(=O)Nc3ccc(C(F)(F)F)cc3)nc2)c1C(=O)N1CCN(Cc2ccc(OCC(F)(F)F)cc2)CC1
[10]
  inhibition: 15.7%

## Cc1c(C(=O)N2CCN(Cc3ccc(OCC(F)(F)F)cc3)CC2)nnn1Cc1ccc(C(=O)Nc2ccc3ccccc3c2)nc1
[1]
  IC50: 25.6 nM
[7]
  inhibition: 3.9%
[8]
  inhibition: 7%
[10]
  inhibition: 52.3%
[11]
  inhibition: 11%
[14]
  inhibition: 57.9%
[15]
  IC50: > 1000 nM

## Cc1c(C(=O)N2CCN(Cc3ccc(Cl)cc3)CC2)nnn1Cc1ccc(C(=O)Nc2ccc(C(F)(F)F)cc2)nc1
[7]
  inhibition: 8.9%
[8]
  inhibition: 6.8%
[10]
  inhibition: 20.4%
[11]
  inhibition: 3.5%

## Cc1c(C(=O)N2CCN(Cc3ccc(OCC(F)(F)F)cc3)CC2)nnn1Cc1ccc(C(=O)Nc2ccccc2C(F)(F)F)nc1
[10]
  inhibition: 36.3%

## COc1ccc(NC(=O)c2ccc(Cn3nnc(C(=O)N4CCN(Cc5ccc(OCC(F)(F)F)cc5)CC4)c3C)cn2)cc1
[10]
  inhibition: 49.2%

## Cc1c(C(=O)N2CCN(Cc3cccc(OCC(F)(F)F)c3)CC2)nnn1Cc1ccc(C(=O)Nc2ccc(C(F)(F)F)cc2)nc1
[10]
  inhibition: 49.9%

## CCc1c(C(=O)N2CCN(Cc3ccc(OCC(F)(F)F)cc3)CC2)nnn1Cc1ccc(C(=O)Nc2ccc(C(F)(F)F)cc2)nc1
[10]
  inhibition: 42.6%
